The record followed here is patent US12486233B2 (Exelixis, Inc., priority 2014, dated 2025).

Data set [1] is described as follows: Dynamic Vapor Sorption (DVS): hygroscopicity and sorption properties. It is filed as physicochemical. Conditions: for hygroscopicity classification: 25° C., European Pharmacopeia classification where stated. Here is the method: Dynamic Vapor Sorption (DVS) was performed using a Hiden Analytical Instruments IGAsorp Vapor Sorption Balance. Approximately 30 mg of sample was placed into a wire-mesh Vapor sorption balance pan, loaded into the IGAsorp Vapor sorption balance and held at 25° C.±0.1° C. The sample was subjected to a step profile from 0 to 90% RH at 10% increments, followed by desorption from 80% RH to 0% RH at 10% increments. The equilibrium criterion was set to 99.0% step completion within a minimum of […] and a maximum of 5 hours for each increment. The weight change during the sorption cycle was monitored, allowing for the hygroscopic nature of the sample to be determined. The data collection interval was in seconds.

The nature of data set [2]: physical stability of amorphous material under stress conditions (temperature, relative humidity). Type of data set: physicochemical. The note with it: 100° C. for 4 days.
Data set [3] is described as follows: BCS classification / solubility in initial development experiments. It is filed as physicochemical. Conditions: free base; in water.
A short description of data set [4]: permeability (BCS classification) in initial development experiments. Conditions: free base. It is filed as in vitro ADME.

Consider `COc1cc2nccc(Oc3ccc(NC(=O)C4(C(=O)Nc5ccc(F)cc5)CC4)cc3)c2cc1OC` [Compound 1 Form III, N-{4-[(6,7-dimethoxyquinolin-4-yl)oxy]phenyl}-N′-(4-fluorophenyl) cyclopropane-1,1-dicarboxamide], for which, in data set [1] (DVS), the “weight gain between 0% RH and 80% RH (in words)” value is reported as “very small weight gain”; the hygroscopicity classification entry is “non-hygroscopic”.

Regarding `COc1cc2nccc(Oc3ccc(NC(=O)C4(C(=O)Nc5ccc(F)cc5)CC4)cc3)c2cc1OC` [Compound 1 Form XXVIII, N-{4-[(6,7-dimethoxyquinolin-4-yl)oxy]phenyl}-N′-(4-fluorophenyl) cyclopropane-1,1-dicarboxamide], in data set [1] (DVS), the “weight gain between 0% RH and 80% RH (in words)” value is reported as “very small weight gain”; the hygroscopicity classification result was “non-hygroscopic”.

In the case of `COc1cc2nccc(Oc3ccc(NC(=O)C4(C(=O)Nc5ccc(F)cc5)CC4)cc3)c2cc1OC` [Compound 1 Amorphous Form, N-{4-[(6,7-dimethoxyquinolin-4-yl)oxy]phenyl}-N′-(4-fluorophenyl) cyclopropane-1,1-dicarboxamide], in data set [1] (DVS), the “water uptake at 90% RH” value is given as “approximately 5%” and the hygroscopicity classification result is “hygroscopic”. For the same molecule, the “total weight gain between 0% RH and 80% RH” value in data set [1] (DVS, sample dried at 0% RH first) came out at 4 % w/w. Besides, the “crystallization by XRPD of the sample post DVS” value in data set [1] (after the DVS cycle) is listed as “no crystallization had occurred”. In addition, in data set [2], the “physical stability to heat stressing” value is reported as “stable”.

As to `COc1cc2nccc(Oc3ccc(NC(=O)C4(C(=O)Nc5ccc(F)cc5)CC4)cc3)c2cc1OC` [Compound 1 Form I, N-{4-[(6,7-dimethoxyquinolin-4-yl)oxy]phenyl}-N′-(4-fluorophenyl) cyclopropane-1,1-dicarboxamide], in data set [1] (DVS), the “weight gain between 40% RH and 90% RH” value is given as “very small weight gain”; the hygroscopicity classification result is listed as “non-hygroscopic”. Besides, in data set [1] (DVS, 40% RH to 90% RH), the “stability at higher humidity” value is on record as “stable”.

On to `COc1cc2nccc(Oc3ccc(NC(=O)C4(C(=O)Nc5ccc(F)cc5)CC4)cc3)c2cc1OC` [Compound 1 Form XXXI, N-{4-[(6,7-dimethoxyquinolin-4-yl)oxy]phenyl}-N′-(4-fluorophenyl) cyclopropane-1,1-dicarboxamide], for which, in data set [1] (DVS, sample dried at 0% RH before sorption and desorption), the “weight lost on drying to 0% RH” value was −7%.

Consider `COc1cc2nccc(Oc3ccc(NC(=O)C4(C(=O)Nc5ccc(F)cc5)CC4)cc3)c2cc1OC` [Compound 1 Form XXX, N-{4-[(6,7-dimethoxyquinolin-4-yl)oxy]phenyl}-N′-(4-fluorophenyl) cyclopropane-1,1-dicarboxamide], for which, in data set [1] (DVS), the hygroscopicity classification entry is on record as “hygroscopic”.

As for `COc1cc2nccc(Oc3ccc(NC(=O)C4(C(=O)Nc5ccc(F)cc5)CC4)cc3)c2cc1OC` [Compound 1, N-{4-[(6,7-dimethoxyquinolin-4-yl)oxy]phenyl}-N′-(4-fluorophenyl) cyclopropane-1,1-dicarboxamide], the solubility result in data set [3] is recorded as “low solubility”. The permeability entry in data set [4] was “high permeability”.
